Data published in patent publication US8158577B2, “Modulation of cartilage homeostasis by active domains of cell binding extracellular matrix molecules” (priority 2004, dated 2012).
Entries after “also recorded” stand apart in the source; their conditions may differ.

Experiments:
K105 cells [1] = assay: Effect on K105 cells already adherent to chondroadherin, light microscopy time study (FIG. 7, 9, 10); assay type: cell-based, human; details: for spreading and aggregation or detaching of k105 cells adherent to chondroadherin (FIG. 10): peptide, anti β1 antibody or 5 mM EDTA added after 30 min, light microscopy after 1 and 3 hours; for spreading, migration and aggregation of k105 cells adherent to chondroadherin: peptide 250 μg/ml added after 30 min adhesion, light microscopy after 1, 3 and 20 hours
Method: (§1) To test cell binding, the chondrosarcoma cells or bovine chondrocytes were suspended in PBS containing 0.1% BSA, 25 U/ml collagenase and added to the wells (50,000/well), in the absence or presence of various peptide pools or the synthetic peptides (200, 100, 50, 25, 12.5 μg/ml). Non-adherent cells were removed after 1 hour and adhesion was determined by measuring lysosomal N-acetylglucosaminidase (12). Adhesion and spreading was visualized by light microscopy. In the time studies, k105 cells were allowed to adhere for 30 minutes, unbound cells were removed and medium without serum supplemented with or without peptides (250 μg/ml), β1 integrin antibody (clone P4C10, Gibco BRL), EDTA (5 mM) was added. Cell morphology was visualized by light microscopy after 1, 3 and 20 hours.
(§2) Tissue culture dishes were coated with 5 μg/ml chondroadherin expressed in E. coli and blocked for non-specific binding with BSA. The k105 cells were suspended in PBS containing 0.1% BSA, and added to the wells (50,000/well). Nonadherent cells were removed after 30 min by washing, plain medium without serum with or without peptides (250 μg/ml) was added and bound cells were visualized by light microscopy after 1, 3 and 20 hours.
as §2, with “The” for “The k105”, “hours. […] The activity for integrin binding is located in the C-terminal eight residues of the sequence involving the WLEAK (SEQ ID No. 1) sequence.” for “hours.”
as §2, with “washing, peptide, anti β1 antibody, 5 mM EDTA or” for “washing,”, “serum” for “serum with or without peptides (250 μg/ml)”, “1 and” for “1,”, “3” for “3 and 20”

K105 cells [2] = assay: Adhesion of K105 cells to chondroadherin in the presence of synthetic peptide (FIG. 3, 5A-5B, 13); assay type: cell-based, human; details: 1 hour at 37° C.; for adhesion of k105 cells to chondroadherin in the presence of peptide: peptide 200, 100, 50, 25, 12.5 μg/ml
Method: Human cells (K9) originating from a human chondrosarcoma were a kind gift from Drs. Sven Inerot and Anders Lindahl, The Salgrenska University Hospital Gothenburg, Sweden. The K9 cells were cultured in Dulbeccos Modified Eagle Medium: Nutrient Mixture F12 (DMEM/F12 1:1) with GLUTAMAX I, supplemented with 10% fetal calf serum, 25 μg/ml ascorbic acid, 50 IU of penicillin and 50 μg/ml streptomycin (Life Technologies, Inc.). A different human cells line (K105) originating from a human chondrosarcoma was a kind gift from Dr. Sven Inerot, The Salgrenska University Hospital, Gothenburg, Sweden. The K105 cells were cultured in a mix of 40% Dulbeccos Modified Eagle Medium, 40% Minimum Essential Media (MEM) alpha Medium, 10% Nutrient Mixture F1 supplemented with 100 nM hydrocortisone, 100 ng/ml insulin, 10% fetal calf serum, 25 μg/ml ascorbic acid, 50 IU of penicillin and 50 μg/ml streptomycin (Life Technologies, Inc.). To harvest cells, culture dishes were rinsed three times with Ca^2+/Mg^2+-free PBS and the cells were incubated with 0.5% trypsin and 1 mM EDTA for 5 min. Detached cells were suspended in PBS containing 1 mg/ml trypsin inhibitor (Sigma) and then washed in PBS. To remove membrane-bound collagens the cells were treated with collagenase 100 U/ml (CLSPA; Worthington Biochemical Corp., Lakewood, N.J.) in PBS, 30 min. 37° C. and then washed in PBS.
(§3) Tissue culture 48-wells dishes (Nunclon, Nunc, Denmark) were coated overnight with 5 μg/ml chondroadherin in 4M Guanidine-HCl, 50 mM sodium acetate, pH 5.8, or for native protein in PBS. Alternatively coating was with 5 μg/ml collagen type II in PBS followed by after-coating with 0.5% BSA in PBS for 3 hours. Collagen type II was isolated from bovine nasal cartilage by pepsin digestion (11). Bacterially expressed chondroadherin was isolated as described above. Recombinant chondroadherin expressed in EBNA cell was cloned and purified as described elsewhere (8).
as §1
Study design: Tissue culture dishes (48-wells) were coated with 5 μg/ml chondroadherin expressed in E. coli and blocked for non-specific binding with BSA. […] were suspended in PBS containing 0.1% BSA, 25 U/ml collagenase and added to the wells (50,000/well) in the presence of synthetic peptide to be tested and allowed to adhere for 1 hour at 37° C. Nonadherent cells were removed by washing, and adhesion was determined by analyzing lysosomal hexosaminidase.
A 12-mer peptide (1947.01) plus an N-terminal cysteine (CQLRGLRRWLEAK) (SEQ ID NO. 3) representing the candidate sequence identified by mass spectrometry were synthesized and its ability to inhibit cell adhesion was determined. Tissue culture dishes were coated with 5 μg/ml chondroadherin expressed in E. coli and blocked for non-specific binding with BSA. The cells were suspended in PBS containing 0.1% BSA, 25 U/ml collagenase and added to the wells (50,000/well) in the presence of synthetic peptide (200, 100, 50, 25, 12.5 μg/ml) and allowed to adhere for 1 hour at 37° C. Nonadherent cells were removed by washing, and adhesion was determined by analyzing lysosomal hexosaminidase. […]

K105 cells [3] = assay: Adhesion of K105 cells to the coated cell binding peptides (FIG. 8); assay type: cell-based, human
Method: Tissue culture dishes were coated with 33 μg/ml (20 µM) peptide solution. The cells (50,000/well) were suspended in PBS containing 0.1% BSA, 25 U/ml collagenase and added to the wells in the presence or absence of synthetic peptide (250 μg/ml) and allowed to adhere for 1 hour at 37° C. Nonadherent cells were removed by washing. Spreading was visualized by light microscopy.

K105 cells [4] = assay: Adhesion of K105 cells to collagen type II in the presence of synthetic peptide (FIG. 5C-5D); assay type: cell-based, human; details: peptide 250 μg/ml, 1 hour at 37° C.
Method: as §3
(§4) To test cell binding, the chondrosarcoma cells or bovine chondrocytes were suspended in PBS containing 0.1% BSA, 25 U/ml collagenase and added to the wells (50,000/well), in the absence or presence of various peptide pools or the synthetic peptides (200, 100, 50, 25, 12.5 μg/ml). Non-adherent cells were removed after 1 hour and adhesion was determined by measuring lysosomal N-acetylglucosaminidase (12). Adhesion and spreading was visualized by light microscopy. […]
Tissue culture dishes were coated with 5 μg/ml chondroadherin expressed in E. coli or collagen type II and blocked for non-specific binding with BSA. […] Spreading was visualized by light microscopy, and adhesion was determined by analyzing lysosomal hexosaminidase. Adhesion is expressed as number of cells where the data represent the average of two wells. […]

bovine chondrocytes = assay: Adhesion of bovine chondrocytes to human chondroadherin with or without cell binding peptides (FIG. 6); assay type: cell-based; details: peptide 250 μg/ml, 1 hour at 37° C., 100,000 cells/well
Method: Bovine chondrocytes were isolated by collagenase (CLS1; Worthington Biochemical Corp., Lakewood, N.J.) digestion of articular cartilage from 4-6 month old calves as described (10). Briefly, cartilage slices were digested for 16 hours with collagenase in EBSS (Earle's balanced salt solution, GIBCO BRL Gaithersburg, Md.). The cells were filtered through a 100 μm nylon filter, washed three times in PBS containing 0.2% BSA (SERVA).
as §4
Tissue culture dishes were coated with 5 μg/ml chondroadherin expressed in E. coli or collagen type II and blocked for non-specific binding with BSA. […] Adhesion was determined by analyzing lysosomal hexosaminidase. Adhesion is expressed as number of cells, 100,000 cells/well was seeded. […]

O=C(O)CN(CCN(CC(=O)O)CC(=O)O)CC(=O)O [EDTA, reference compound]
spreading and aggregation or detaching of k105 cells adherent to chondroadherin (FIG. 10) (K105 cells [1]): cells detaching

Ac-[CQLRGLRRWLEAKASRPDATC]-NH2 (Ac-CQLRGLRRWLEAKASRPDATC-NH2; also: cyclised (brackets), bond type not given here; listed as Homo sapiens) [SEQ ID No. 12]
inhibitory effect on K105 cell adhesion to chondroadherin (Example II, FIG. 13) (K105 cells [2]): inhibitory effect

CQLRGLRRWLEAK (N-terminal cysteine; listed as Homo sapiens) [12-mer peptide plus an N-terminal cysteine]
k105 cell adhesion to chondroadherin in the presence of peptide (K105 cells [2]; peptide 250 μg/ml): decreased
adhesion of k105 cells to chondroadherin in the presence of peptide (K105 cells [2]): able to inhibit
adhesion of k105 cells to chondroadherin in the presence of peptide (K105 cells [2]; listed as 12-mer peptide): decreased in a dose dependent manner
spreading, migration and aggregation of k105 cells adherent to chondroadherin (K105 cells [1]): stimulated the cells to form aggregate; also recorded: prevented spreading and induced cells to form aggregate
spreading and aggregation or detaching of k105 cells adherent to chondroadherin (FIG. 10) (K105 cells [1]): prevented spreading and the cells formed aggregate
adhesion and shape of k105 cells plated on the peptide (K105 cells [3]; dishes coated with 33 μg/ml peptide, 1 hour at 37° C.): adhere and remain round
inhibition of k105 adhesion to the coated peptide by the same peptide in solution (K105 cells [3]; peptide in solution 250 μg/ml): inhibited
k105 cell adhesion to collagen type II in the presence of peptide (K105 cells [4]): not significantly affected
bovine chondrocyte adhesion to chondroadherin in the presence of peptide (bovine chondrocytes): decreased

H-LRRWLEAK-OH (listed as Homo sapiens) [SEQ ID No. 2]
spreading, migration and aggregation of k105 cells adherent to chondroadherin (K105 cells [1]): prevented spreading and induced cells to form aggregate

H-QLRGLRRWLEAK-OH (listed as Homo sapiens) [SEQ ID No. 3]
spreading, migration and aggregation of k105 cells adherent to chondroadherin (K105 cells [1]): prevented spreading and induced cells to form aggregates

QLRGLRRW (listed as Homo sapiens)
spreading, migration and aggregation of k105 cells adherent to chondroadherin (K105 cells [1]): no effect
